PubChem BioAssay (NCI)
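At the GI50, growth is halved. TGI marks complete inhibition of growth.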

Legend:
Assay in all cases: growth of human tumour cells (NCI), 384-well format
786-0 renal = tested on: 786-0 renal
A498 renal = tested on: A498 renal
A549 NSCLC = tested on: A549 NSCLC
ACHN renal = tested on: ACHN renal
BT-549 breast = tested on: BT-549 breast
CAKI-1 renal = tested on: CAKI-1 renal
EKVX NSCLC = tested on: EKVX NSCLC
HCT-15 colon = tested on: HCT-15 colon
HOP-62 NSCLC = tested on: HOP-62 NSCLC
HOP-92 NSCLC = tested on: HOP-92 NSCLC
HT29 colon = tested on: HT29 colon
IGROV1 ovarian = tested on: IGROV1 ovarian
K-562 leukemia = tested on: K-562 leukemia
M14 melanoma = tested on: M14 melanoma
MALME-3M melanoma = tested on: MALME-3M melanoma
MCF7 breast = tested on: MCF7 breast
MDA-MB-231 breast = tested on: MDA-MB-231 breast
NCI-H226 lung = tested on: NCI-H226 lung
NCI-H23 lung = tested on: NCI-H23 lung
NCI-H322M lung = tested on: NCI-H322M lung
NCI-H460 NSCLC = tested on: NCI-H460 NSCLC
NCI/ADR-RES ovarian = tested on: NCI/ADR-RES ovarian
OVCAR-3 ovarian = tested on: OVCAR-3 ovarian
OVCAR-4 ovarian = tested on: OVCAR-4 ovarian
OVCAR-5 ovarian = tested on: OVCAR-5 ovarian
OVCAR-8 ovarian = tested on: OVCAR-8 ovarian
PC-3 prostate = tested on: PC-3 prostate
RXF 393 renal = tested on: RXF 393 renal
SF-268 CNS = tested on: SF-268 CNS
SF-295 CNS = tested on: SF-295 CNS
SF-539 CNS = tested on: SF-539 CNS
SK-MEL-28 melanoma = tested on: SK-MEL-28 melanoma
TK-10 renal = tested on: TK-10 renal
UACC-257 melanoma = tested on: UACC-257 melanoma
UACC-62 melanoma = tested on: UACC-62 melanoma
UO-31 renal = tested on: UO-31 renal
CCRF-CEM leukemia = tested on: CCRF-CEM leukemia
COLO 205 colon = tested on: COLO 205 colon
DU-145 prostate = tested on: DU-145 prostate
HCC-2998 colon = tested on: HCC-2998 colon
HL-60(TB) leukemia = tested on: HL-60(TB) leukemia
HS 578T breast = tested on: HS 578T breast
LOX IMVI melanoma = tested on: LOX IMVI melanoma
MDA-MB-435 melanoma = tested on: MDA-MB-435 melanoma
MDA-MB-468 breast = tested on: MDA-MB-468 breast
MOLT-4 leukemia = tested on: MOLT-4 leukemia
NCI-H522 lung = tested on: NCI-H522 lung
RPMI-8226 leukemia = tested on: RPMI-8226 leukemia
SK-MEL-5 melanoma = tested on: SK-MEL-5 melanoma
SK-OV-3 ovarian = tested on: SK-OV-3 ovarian
SN12C renal = tested on: SN12C renal
SNB-19 CNS = tested on: SNB-19 CNS
SNB-75 CNS = tested on: SNB-75 CNS
SR leukemia = tested on: SR leukemia
SW-620 colon = tested on: SW-620 colon
T-47D breast = tested on: T-47D breast
U251 glioblastoma = tested on: U251 glioblastoma

In the case of `CC[C@]1(O)C[C@H]2CN(CCc3c([nH]c4ccccc34)[C@@](C(=O)OC)(c3cc4c(cc3OC)N(C=O)[C@H]3[C@@](O)(C(=O)OC)[C@H](OC(C)=O)[C@]5(CC)C=CCN6CC[C@]43[C@@H]65)C2)C1`, the GI50 ([…]-0 renal) is reported as 14.3 nM, the TGI (786-0 renal) is reported as 48100 nM and the GI50 (A498 renal) is reported as less than 16.3 nM. It also gave a TGI (A498 renal) of 844 nM, a GI50 (A549 NSCLC) of 34.6 nM and a GI50 (ACHN renal) of 262 nM. It also gave a TGI (ACHN renal) greater than 95900 nM, a TGI (BT-549 breast) of 32.9 nM and a GI50 (CAKI-1 renal) of 30.4 nM. The TGI (CAKI-1 renal) was 18100 nM, the GI50 (EKVX NSCLC) was 34.2 nM and the TGI (EKVX NSCLC) was greater than 91800 nM. For the same molecule, the GI50 (HCT-15 colon) was 72 nM, the TGI (HCT-15 colon) was 1310 nM and the TGI (HOP-62 NSCLC) was 2330 nM. It also gave a GI50 (HOP-92 NSCLC) of less than 23.2 nM, a TGI (HOP-92 NSCLC) of 41100 nM and a TGI (HT29 colon) of 36200 nM. It also gave a GI50 (IGROV1 ovarian) of less than 27.3 nM, a TGI (IGROV1 ovarian) greater than 35600 nM and a TGI (K-562 leukemia) of less than 10.8 nM. For the same molecule, the TGI (M14 melanoma) was 17800 nM, the TGI (MALME-3M melanoma) was 29300 nM and the TGI (MCF7 breast) was 4320 nM. The TGI (MDA-MB-231 breast) was greater than 93800 nM, the GI50 (NCI-H226 lung) was 39.9 nM and the TGI (NCI-H226 lung) was greater than 84900 nM. The TGI (NCI-H23 lung) was 49.9 nM, the GI50 (NCI-H322M lung) was 34 nM and the TGI (NCI-H460 NSCLC) was 13.1 nM. The GI50 (NCI/ADR-RES ovarian) was 1870 nM, the TGI (NCI/ADR-RES ovarian) was 4570 nM and the TGI (OVCAR-3 ovarian) was less than 11 nM. It also gave a GI50 (OVCAR-4 ovarian) of 1400 nM, a GI50 (OVCAR-5 ovarian) of 44.2 nM and a GI50 (OVCAR-8 ovarian) of less than 12.1 nM. It also gave a TGI (OVCAR-8 ovarian) of 47 nM, a GI50 (PC-3 prostate) of less than 10.5 nM and a TGI (PC-3 prostate) greater than 61200 nM. The TGI (RXF 393 renal) was 78100 nM, the TGI (SF-268 CNS) was 20300 nM and the GI50 (SF-295 CNS) was less than 14.2 nM. It also gave a TGI (SF-295 CNS) of less than 23.1 nM, a TGI (SF-539 CNS) of less than 12.2 nM and a TGI (SK-MEL-28 melanoma) of 56200 nM. The GI50 (TK-10 renal) was 54.5 nM, the TGI (UACC-257 melanoma) was 20200 nM and the TGI (UACC-62 melanoma) was 26000 nM. The GI50 (UO-31 renal) was 446 nM and the TGI (UO-31 renal) was greater than 84800 nM.

In the case of `CC(C)[C@]12O[C@H]1[C@@H]1O[C@]13[C@]1(O[C@H]1C[C@H]1C4=C(CC[C@@]13C)C(=O)OC4)[C@@H]2O`, the GI50 ([…]-0 renal) is reported as less than 10 nM, the TGI (786-0 renal) is reported as 17.7 nM and the GI50 (A498 renal) is reported as less than 10 nM. The TGI (A498 renal) was 27.5 nM, the GI50 (A549 NSCLC) was 15 nM and the TGI (A549 NSCLC) was greater than 100000 nM. The GI50 (ACHN renal) was less than 10 nM, the TGI (ACHN renal) was 32.4 nM and the GI50 (BT-549 breast) was less than 10 nM. It also gave a TGI (BT-549 breast) of less than 10 nM, a GI50 (CCRF-CEM leukemia) of less than 10 nM and a TGI (CCRF-CEM leukemia) of 15.7 nM. The GI50 (COLO 205 colon) was less than 10 nM, the TGI (COLO 205 colon) was 23.3 nM and the GI50 (DU-145 prostate) was less than 10 nM. For the same molecule, the TGI (DU-145 prostate) was less than 10 nM, the GI50 (EKVX NSCLC) was 10 nM and the TGI (EKVX NSCLC) was 30.2 nM. For the same molecule, the GI50 (HCC-2998 colon) was 13.7 nM, the TGI (HCC-2998 colon) was 31.3 nM and the GI50 (HCT-15 colon) was less than 10 nM. It also gave a TGI (HCT-15 colon) of 31.6 nM, a GI50 (HL-60(TB) leukemia) of less than 10 nM and a TGI (HL-60(TB) leukemia) of less than 10 nM. For the same molecule, the GI50 (HOP-62 NSCLC) was less than 10 nM, the TGI (HOP-62 NSCLC) was less than 10 nM and the GI50 (HOP-92 NSCLC) was 12.3 nM. The TGI (HOP-92 NSCLC) was 47.7 nM, the GI50 (HS 578T breast) was less than 10 nM and the TGI (HS 578T breast) was 18.4 nM. It also gave a GI50 (HT29 colon) of 11.1 nM, a TGI (HT29 colon) greater than 100000 nM and a GI50 (K-562 leukemia) of less than 10 nM. For the same molecule, the TGI (K-562 leukemia) was 18.8 nM, the GI50 (LOX IMVI melanoma) was less than 10 nM and the TGI (LOX IMVI melanoma) was less than 10 nM. The GI50 (M14 melanoma) was 11.7 nM, the TGI (M14 melanoma) was 24.1 nM and the GI50 (MALME-3M melanoma) was less than 10 nM. It also gave a TGI (MALME-3M melanoma) of 21 nM, a GI50 (MDA-MB-231 breast) of less than 10 nM and a TGI (MDA-MB-231 breast) of 21.7 nM. For the same molecule, the GI50 (MDA-MB-435 melanoma) was less than 10 nM, the TGI (MDA-MB-435 melanoma) was 18.1 nM and the GI50 (MDA-MB-468 breast) was less than 10 nM. The TGI (MDA-MB-468 breast) was 20.8 nM, the GI50 (MOLT-4 leukemia) was less than 10 nM and the TGI (MOLT-4 leukemia) was less than 10 nM. The GI50 (NCI-H226 lung) was less than 10 nM, the TGI (NCI-H226 lung) was 12.3 nM and the GI50 (NCI-H23 lung) was less than 10 nM. The TGI (NCI-H23 lung) was less than 10 nM, the GI50 (NCI-H322M lung) was 10.8 nM and the TGI (NCI-H322M lung) was 31.8 nM. For the same molecule, the GI50 (NCI-H460 NSCLC) was less than 10 nM, the TGI (NCI-H460 NSCLC) was less than 10 nM and the GI50 (NCI-H522 lung) was less than 10 nM. For the same molecule, the TGI (NCI-H522 lung) was less than 10 nM, the GI50 (NCI/ADR-RES ovarian) was less than 10 nM and the TGI (NCI/ADR-RES ovarian) was 26.1 nM. The GI50 (OVCAR-3 ovarian) was less than 10 nM, the TGI (OVCAR-3 ovarian) was 12.4 nM and the GI50 (OVCAR-4 ovarian) was less than 10 nM. For the same molecule, the TGI (OVCAR-4 ovarian) was less than 10 nM, the GI50 (OVCAR-5 ovarian) was less than 10 nM and the TGI (OVCAR-5 ovarian) was greater than 100000 nM. For the same molecule, the GI50 (OVCAR-8 ovarian) was 10.6 nM, the TGI (OVCAR-8 ovarian) was 36.6 nM and the GI50 (PC-3 prostate) was 12.3 nM. The TGI (PC-3 prostate) was 52 nM, the GI50 (RPMI-8226 leukemia) was less than 10 nM and the TGI (RPMI-8226 leukemia) was less than 10 nM. The GI50 (RXF 393 renal) was less than 10 nM, the TGI (RXF 393 renal) was less than 10 nM and the GI50 (SF-268 CNS) was 10.2 nM. It also gave a TGI (SF-268 CNS) of 27.7 nM, a GI50 (SF-295 CNS) of less than 10 nM and a TGI (SF-295 CNS) of 21.3 nM. For the same molecule, the GI50 (SF-539 CNS) was less than 10 nM, the TGI (SF-539 CNS) was 15.4 nM and the GI50 (SK-MEL-28 melanoma) was less than 10 nM. For the same molecule, the TGI (SK-MEL-28 melanoma) was less than 10 nM, the GI50 (SK-MEL-5 melanoma) was less than 10 nM and the TGI (SK-MEL-5 melanoma) was 12.2 nM. The GI50 (SK-OV-3 ovarian) was less than 10 nM, the TGI (SK-OV-3 ovarian) was 36.5 nM and the GI50 (SN12C renal) was less than 10 nM. For the same molecule, the TGI (SN12C renal) was 12.4 nM, the GI50 (SNB-19 CNS) was 21.1 nM and the TGI (SNB-19 CNS) was greater than 100000 nM. It also gave a GI50 (SNB-75 CNS) of less than 10 nM, a TGI (SNB-75 CNS) of 21.9 nM and a GI50 (SR leukemia) of less than 10 nM. The TGI (SR leukemia) was less than 10 nM, the GI50 (SW-620 colon) was less than 10 nM and the TGI (SW-620 colon) was 33.3 nM. The GI50 (T-47D breast) was less than 10 nM, the TGI (T-47D breast) was 37 nM and the GI50 (U251 glioblastoma) was 11.3 nM. It also gave a TGI (U251 glioblastoma) of 66 nM, a GI50 (UACC-257 melanoma) of less than 10 nM and a TGI (UACC-257 melanoma) of 21.2 nM. For the same molecule, the GI50 (UO-31 renal) was 11.4 nM and the TGI (UO-31 renal) was 51.3 nM.
